Assay results as given in US10844077B2, “Thiazolyl-containing compounds for treating proliferative diseases” (Dana-Farber Cancer Institute, Inc., priority 2014, dated 2020).
Like-named read-outs stand apart in the source and are kept apart here.

How the values were obtained:
Type in all cases: binding
broad panel of kinases [1] = molecular target: broad panel of kinases (Homo sapiens, UniProt O15530); settings: PDPK1; 1 μM
broad panel of kinases [2] = molecular target: broad panel of kinases (Homo sapiens, UniProt O43683); settings: BUB1; 1 μM
broad panel of kinases [3] = molecular target: broad panel of kinases (Homo sapiens, UniProt O75460); settings: ERN1; 1 μM
broad panel of kinases (Homo sapiens, UniProt O75460), sequence (O75460 19-977 limits assumed): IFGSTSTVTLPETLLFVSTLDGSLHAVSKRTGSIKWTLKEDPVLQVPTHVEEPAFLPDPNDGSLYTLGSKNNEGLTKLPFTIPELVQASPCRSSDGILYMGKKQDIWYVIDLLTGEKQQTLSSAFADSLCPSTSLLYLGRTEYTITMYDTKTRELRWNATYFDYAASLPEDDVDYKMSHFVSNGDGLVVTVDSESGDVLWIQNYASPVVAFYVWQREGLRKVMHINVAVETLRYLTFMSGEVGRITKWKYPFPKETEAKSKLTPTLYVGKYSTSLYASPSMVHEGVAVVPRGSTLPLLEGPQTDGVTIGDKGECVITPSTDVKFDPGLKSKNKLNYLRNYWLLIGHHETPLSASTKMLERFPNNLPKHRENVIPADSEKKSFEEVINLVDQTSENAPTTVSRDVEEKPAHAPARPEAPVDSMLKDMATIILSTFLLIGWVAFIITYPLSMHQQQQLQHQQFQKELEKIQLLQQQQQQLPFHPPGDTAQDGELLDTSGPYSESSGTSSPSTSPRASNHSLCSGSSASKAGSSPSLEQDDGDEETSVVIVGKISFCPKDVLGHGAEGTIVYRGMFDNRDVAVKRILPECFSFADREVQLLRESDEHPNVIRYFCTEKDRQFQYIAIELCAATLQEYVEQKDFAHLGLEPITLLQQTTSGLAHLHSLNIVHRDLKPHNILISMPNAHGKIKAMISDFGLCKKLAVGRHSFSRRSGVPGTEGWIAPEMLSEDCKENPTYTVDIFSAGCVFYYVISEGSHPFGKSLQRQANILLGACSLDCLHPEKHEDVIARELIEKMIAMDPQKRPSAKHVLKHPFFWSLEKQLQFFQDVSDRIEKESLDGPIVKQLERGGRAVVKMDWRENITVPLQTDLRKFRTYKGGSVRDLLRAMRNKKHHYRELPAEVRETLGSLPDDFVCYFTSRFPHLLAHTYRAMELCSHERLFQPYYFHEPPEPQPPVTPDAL

broad panel of kinases [4] = molecular target: broad panel of kinases (Homo sapiens, UniProt O75676); settings: 1 μM
broad panel of kinases [5] = molecular target: broad panel of kinases (Homo sapiens, UniProt O95747); settings: OSR1; 1 μM
broad panel of kinases (Homo sapiens, UniProt O95747), sequence (O95747 2-527 limits assumed): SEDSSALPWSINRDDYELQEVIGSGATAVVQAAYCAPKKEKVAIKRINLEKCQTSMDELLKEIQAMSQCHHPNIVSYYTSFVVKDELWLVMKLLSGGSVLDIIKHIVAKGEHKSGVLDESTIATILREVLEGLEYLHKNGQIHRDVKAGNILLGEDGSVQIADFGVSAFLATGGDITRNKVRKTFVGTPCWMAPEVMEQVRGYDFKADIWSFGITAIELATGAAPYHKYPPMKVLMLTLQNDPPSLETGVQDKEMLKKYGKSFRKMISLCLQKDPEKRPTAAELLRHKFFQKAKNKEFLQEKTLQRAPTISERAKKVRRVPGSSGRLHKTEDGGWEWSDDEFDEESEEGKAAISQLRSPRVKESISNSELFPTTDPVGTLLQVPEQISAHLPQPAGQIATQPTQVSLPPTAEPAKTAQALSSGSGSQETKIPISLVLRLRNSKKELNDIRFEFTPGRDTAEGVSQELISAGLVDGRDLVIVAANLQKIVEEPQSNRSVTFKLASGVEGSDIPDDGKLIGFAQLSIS

broad panel of kinases [6] = molecular target: broad panel of kinases (Homo sapiens, UniProt O96013); settings: PAK4; 1 μM
broad panel of kinases [7] = molecular target: broad panel of kinases (Homo sapiens, UniProt O96017); settings: CHEK2; 1 μM
broad panel of kinases [8] = molecular target: broad panel of kinases (Homo sapiens, UniProt P00519, M351T); settings: ABL1(M351T)-phosphorylated; 1 μM
broad panel of kinases [9] = molecular target: broad panel of kinases (Homo sapiens, UniProt P00519, Q252H); settings: 1 μM
broad panel of kinases [10] = molecular target: broad panel of kinases (Homo sapiens, UniProt P08581); settings: MET; 1 μM
broad panel of kinases [11] = molecular target: broad panel of kinases (Homo sapiens, UniProt P16234); settings: PDGFRA; 1 μM
broad panel of kinases [12] = molecular target: broad panel of kinases (Homo sapiens, UniProt P22455); settings: FGFR4; 1 μM
broad panel of kinases (Homo sapiens, UniProt P22455), sequence (P22455 22-802 limits assumed): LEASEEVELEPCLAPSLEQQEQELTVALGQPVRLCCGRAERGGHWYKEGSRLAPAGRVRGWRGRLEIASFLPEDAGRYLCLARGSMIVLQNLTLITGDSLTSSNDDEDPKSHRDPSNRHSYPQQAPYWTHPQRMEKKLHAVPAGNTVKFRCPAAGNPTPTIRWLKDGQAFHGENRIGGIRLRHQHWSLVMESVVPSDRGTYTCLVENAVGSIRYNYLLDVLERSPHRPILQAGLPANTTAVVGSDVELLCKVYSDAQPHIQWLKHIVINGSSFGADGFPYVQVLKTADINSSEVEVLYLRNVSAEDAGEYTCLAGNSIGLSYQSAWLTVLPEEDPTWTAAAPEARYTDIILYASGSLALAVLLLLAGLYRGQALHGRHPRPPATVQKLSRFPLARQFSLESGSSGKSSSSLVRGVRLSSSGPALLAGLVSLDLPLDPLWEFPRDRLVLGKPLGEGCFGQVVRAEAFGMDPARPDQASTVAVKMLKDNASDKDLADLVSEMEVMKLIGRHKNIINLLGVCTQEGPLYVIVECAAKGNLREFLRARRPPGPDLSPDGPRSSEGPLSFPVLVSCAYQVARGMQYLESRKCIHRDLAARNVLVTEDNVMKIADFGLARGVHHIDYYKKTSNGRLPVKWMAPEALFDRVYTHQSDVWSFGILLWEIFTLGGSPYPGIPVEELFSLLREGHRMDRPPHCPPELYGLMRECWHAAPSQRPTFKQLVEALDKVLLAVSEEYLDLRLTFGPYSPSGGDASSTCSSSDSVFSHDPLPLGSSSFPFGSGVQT

broad panel of kinases [13] = molecular target: broad panel of kinases (Homo sapiens, UniProt P45985); settings: MEK4; 1 μM
broad panel of kinases (Homo sapiens, UniProt P45985), sequence (P45985 2-399 limits assumed): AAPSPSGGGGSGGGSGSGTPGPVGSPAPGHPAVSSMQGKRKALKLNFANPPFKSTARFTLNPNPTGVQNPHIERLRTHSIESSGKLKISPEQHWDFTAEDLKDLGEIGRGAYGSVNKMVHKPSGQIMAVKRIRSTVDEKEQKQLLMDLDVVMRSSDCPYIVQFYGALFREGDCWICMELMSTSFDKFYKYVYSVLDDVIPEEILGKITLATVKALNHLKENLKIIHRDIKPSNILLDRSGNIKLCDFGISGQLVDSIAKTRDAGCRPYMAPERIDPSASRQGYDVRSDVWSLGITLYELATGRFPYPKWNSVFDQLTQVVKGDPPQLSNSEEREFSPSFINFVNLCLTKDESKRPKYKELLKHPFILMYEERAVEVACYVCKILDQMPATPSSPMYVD

broad panel of kinases [14] = molecular target: broad panel of kinases (Homo sapiens, UniProt P51451); settings: BLK; 1 μM
broad panel of kinases (Homo sapiens, UniProt P51451), sequence (P51451 2-505 limits assumed): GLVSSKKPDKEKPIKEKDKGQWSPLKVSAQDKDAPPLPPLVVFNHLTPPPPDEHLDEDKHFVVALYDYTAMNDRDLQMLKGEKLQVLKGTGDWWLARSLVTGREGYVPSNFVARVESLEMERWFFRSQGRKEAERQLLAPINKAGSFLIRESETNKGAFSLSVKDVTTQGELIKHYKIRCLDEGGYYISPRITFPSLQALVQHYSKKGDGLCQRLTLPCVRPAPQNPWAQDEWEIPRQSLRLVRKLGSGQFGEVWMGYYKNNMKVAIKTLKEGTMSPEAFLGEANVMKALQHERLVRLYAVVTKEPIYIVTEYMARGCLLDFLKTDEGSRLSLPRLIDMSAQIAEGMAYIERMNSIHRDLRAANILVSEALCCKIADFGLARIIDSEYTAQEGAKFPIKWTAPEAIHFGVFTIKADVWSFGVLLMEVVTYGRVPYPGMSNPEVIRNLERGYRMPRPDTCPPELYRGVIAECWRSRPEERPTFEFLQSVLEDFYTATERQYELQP

broad panel of kinases [15] = molecular target: broad panel of kinases (Homo sapiens, UniProt P57078); settings: RIPK4; 1 μM
broad panel of kinases [16] = molecular target: broad panel of kinases (Homo sapiens, UniProt Q13177); settings: PAK2; 1 μM
broad panel of kinases (Homo sapiens, UniProt Q13177), sequence (Q13177 2-524 limits assumed): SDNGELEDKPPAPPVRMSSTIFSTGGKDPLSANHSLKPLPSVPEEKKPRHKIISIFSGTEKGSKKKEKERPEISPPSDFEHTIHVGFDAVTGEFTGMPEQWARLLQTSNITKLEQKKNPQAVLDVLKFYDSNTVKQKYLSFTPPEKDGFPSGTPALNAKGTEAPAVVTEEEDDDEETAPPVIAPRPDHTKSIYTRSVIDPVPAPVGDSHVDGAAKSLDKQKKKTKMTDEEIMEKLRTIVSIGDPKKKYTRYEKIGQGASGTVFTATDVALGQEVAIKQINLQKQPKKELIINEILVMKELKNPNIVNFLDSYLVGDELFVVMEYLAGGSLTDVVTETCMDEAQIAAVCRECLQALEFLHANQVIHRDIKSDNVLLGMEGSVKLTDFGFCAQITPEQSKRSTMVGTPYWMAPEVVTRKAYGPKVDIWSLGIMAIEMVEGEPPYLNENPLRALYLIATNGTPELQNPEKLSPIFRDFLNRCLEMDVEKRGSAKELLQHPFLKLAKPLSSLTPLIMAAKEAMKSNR

broad panel of kinases [17] = molecular target: broad panel of kinases (Homo sapiens, UniProt Q13188); settings: MST2; 1 μM
broad panel of kinases [18] = molecular target: broad panel of kinases (Homo sapiens, UniProt Q13627); settings: DYRK1A; 1 μM
broad panel of kinases [19] = molecular target: broad panel of kinases (Homo sapiens, UniProt Q14004); settings: CDC2L5; 1 μM
broad panel of kinases [20] = molecular target: broad panel of kinases (Homo sapiens, UniProt Q16288); settings: TRKC; 1 μM
broad panel of kinases (Homo sapiens, UniProt Q16288), sequence (Q16288 32-839 limits assumed): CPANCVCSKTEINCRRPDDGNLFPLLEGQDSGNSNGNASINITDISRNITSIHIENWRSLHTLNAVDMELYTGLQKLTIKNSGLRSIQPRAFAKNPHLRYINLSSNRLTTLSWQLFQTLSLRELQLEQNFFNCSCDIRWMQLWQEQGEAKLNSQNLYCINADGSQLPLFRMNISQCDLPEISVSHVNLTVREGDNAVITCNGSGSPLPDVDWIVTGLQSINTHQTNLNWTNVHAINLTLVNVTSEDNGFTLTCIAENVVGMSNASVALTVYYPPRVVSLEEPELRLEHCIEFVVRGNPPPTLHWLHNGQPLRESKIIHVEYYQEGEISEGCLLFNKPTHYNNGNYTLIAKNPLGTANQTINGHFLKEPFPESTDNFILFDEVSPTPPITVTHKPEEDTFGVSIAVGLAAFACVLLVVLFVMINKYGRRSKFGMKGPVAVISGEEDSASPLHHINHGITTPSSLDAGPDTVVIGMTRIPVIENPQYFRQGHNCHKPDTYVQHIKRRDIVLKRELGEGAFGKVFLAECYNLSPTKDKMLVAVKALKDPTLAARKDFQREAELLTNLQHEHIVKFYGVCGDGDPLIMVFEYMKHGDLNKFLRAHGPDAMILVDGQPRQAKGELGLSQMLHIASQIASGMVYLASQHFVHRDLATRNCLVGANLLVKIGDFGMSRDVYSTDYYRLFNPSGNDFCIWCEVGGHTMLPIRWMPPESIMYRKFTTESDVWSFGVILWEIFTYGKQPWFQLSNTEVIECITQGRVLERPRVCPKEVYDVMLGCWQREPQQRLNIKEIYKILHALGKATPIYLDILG

broad panel of kinases [21] = molecular target: broad panel of kinases (Homo sapiens, UniProt Q16659); settings: ERK3; 1 μM
broad panel of kinases [22] = molecular target: broad panel of kinases (Homo sapiens, UniProt Q6ZWH5); settings: NEK10; 1 μM
broad panel of kinases [23] = molecular target: broad panel of kinases (Homo sapiens, UniProt Q7L7X3); settings: TAOK1; 1 μM
broad panel of kinases [24] = molecular target: broad panel of kinases (Homo sapiens, UniProt Q8TD08); settings: ERK8; 1 μM
broad panel of kinases [25] = molecular target: broad panel of kinases (Homo sapiens, UniProt Q8WXR4); settings: MYO3B; 1 μM
broad panel of kinases [26] = molecular target: broad panel of kinases (Homo sapiens, UniProt Q96GD4); settings: AURKB; 1 μM
broad panel of kinases [27] = molecular target: broad panel of kinases (Homo sapiens, UniProt Q9BWU1); settings: CDK11; 1 μM
broad panel of kinases [28] = molecular target: broad panel of kinases (Homo sapiens, UniProt Q9HC98); settings: NEK6; 1 μM
broad panel of kinases [29] = molecular target: broad panel of kinases (Homo sapiens, UniProt Q9NWZ3); settings: IRAK4; 1 μM
broad panel of kinases [30] = molecular target: broad panel of kinases (Homo sapiens, UniProt Q9P289); settings: MST4; 1 μM
broad panel of kinases [31] = molecular target: broad panel of kinases (Homo sapiens, UniProt Q9P2K8, S808G); settings: GCN2(Kin.Dom.2, S808G); 1 μM
broad panel of kinases [32] = molecular target: broad panel of kinases (Homo sapiens, UniProt Q9UEE5); settings: DRAK1; 1 μM
broad panel of kinases [33] = molecular target: broad panel of kinases (Homo sapiens, UniProt Q9UM73, L1196M); settings: ALK(L1196M); 1 μM
broad panel of kinases [34] = molecular target: broad panel of kinases (Homo sapiens, UniProt Q9Y2H1); settings: NDR2; 1 μM
broad panel of kinases (Homo sapiens, UniProt Q9Y2H1), sequence (Q9Y2H1 2-464 limits assumed): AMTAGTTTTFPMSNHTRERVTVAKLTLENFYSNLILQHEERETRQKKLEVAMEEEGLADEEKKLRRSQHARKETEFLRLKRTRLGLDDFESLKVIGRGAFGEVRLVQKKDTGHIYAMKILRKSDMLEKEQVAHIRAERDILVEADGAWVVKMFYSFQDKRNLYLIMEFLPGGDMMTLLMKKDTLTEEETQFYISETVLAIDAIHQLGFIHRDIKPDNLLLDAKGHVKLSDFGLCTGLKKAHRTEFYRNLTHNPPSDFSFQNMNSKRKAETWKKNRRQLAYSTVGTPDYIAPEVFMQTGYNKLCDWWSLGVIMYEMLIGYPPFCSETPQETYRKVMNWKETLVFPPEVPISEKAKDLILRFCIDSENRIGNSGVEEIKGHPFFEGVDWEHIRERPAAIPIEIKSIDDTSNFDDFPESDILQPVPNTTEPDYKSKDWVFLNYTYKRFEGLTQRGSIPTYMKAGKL

broad panel of kinases [35] = molecular target: broad panel of kinases (Homo sapiens, UniProt Q9Y463); settings: DYRK1B; 1 μM
broad panel of kinases [36] = molecular target: broad panel of kinases (Homo sapiens, UniProt Q9Y4K4); settings: MAP4K5; 1 μM

C=CC(=O)N1CC[C@H](Nc2nc(CN3CCOCC3)cc(Nc3ncc(C(=O)Nc4c(C)cccc4C)s3)n2)C1 [Example I-2]
percent of control binding remaining (lower = stronger binding) (broad panel of kinases [1]): 98% | percent of control binding remaining (lower = stronger binding) (broad panel of kinases [2]): 85% | percent of control binding remaining (lower = stronger binding) (broad panel of kinases [3]): 83% | percent of control binding remaining (lower = stronger binding) (broad panel of kinases [4]; RPS6KA4(Kin.Dom.1-N-terminal)): 100% | percent of control binding remaining (lower = stronger binding) (broad panel of kinases [4]; RPS6KA4(Kin.Dom.2-C-terminal)): 96% | percent of control binding remaining (lower = stronger binding) (broad panel of kinases [5]): 81% | percent of control binding remaining (lower = stronger binding) (broad panel of kinases [6]): 100% | percent of control binding remaining (lower = stronger binding) (broad panel of kinases [7]): 97% | percent of control binding remaining (lower = stronger binding) (broad panel of kinases [8]): 0.6% | percent of control binding remaining (lower = stronger binding) (broad panel of kinases [9]; ABL1(Q252H)-nonphosphorylated): 0.3% | percent of control binding remaining (lower = stronger binding) (broad panel of kinases [9]; ABL1(Q252H)-phosphorylated): 0.25% | percent of control binding remaining (lower = stronger binding) (broad panel of kinases [10]): 97% | percent of control binding remaining (lower = stronger binding) (broad panel of kinases [11]): 4.5% | percent of control binding remaining (lower = stronger binding) (broad panel of kinases [12]): 100% | percent of control binding remaining (lower = stronger binding) (broad panel of kinases [13]): 100% | percent of control binding remaining (lower = stronger binding) (broad panel of kinases [14]): 0% | percent of control binding remaining (lower = stronger binding) (broad panel of kinases [15]): 95% | percent of control binding remaining (lower = stronger binding) (broad panel of kinases [16]): 92% | percent of control binding remaining (lower = stronger binding) (broad panel of kinases [17]): 69% | percent of control binding remaining (lower = stronger binding) (broad panel of kinases [18]): 100% | percent of control binding remaining (lower = stronger binding) (broad panel of kinases [19]): 100% | percent of control binding remaining (lower = stronger binding) (broad panel of kinases [20]): 99% | percent of control binding remaining (lower = stronger binding) (broad panel of kinases [21]): 100% | percent of control binding remaining (lower = stronger binding) (broad panel of kinases [22]): 93% | percent of control binding remaining (lower = stronger binding) (broad panel of kinases [23]): 93% | percent of control binding remaining (lower = stronger binding) (broad panel of kinases [24]): 97% | percent of control binding remaining (lower = stronger binding) (broad panel of kinases [25]): 93% | percent of control binding remaining (lower = stronger binding) (broad panel of kinases [26]): 96% | percent of control binding remaining (lower = stronger binding) (broad panel of kinases [27]): 98% | percent of control binding remaining (lower = stronger binding) (broad panel of kinases [28]): 100% | percent of control binding remaining (lower = stronger binding) (broad panel of kinases [29]): 76% | percent of control binding remaining (lower = stronger binding) (broad panel of kinases [30]): 100% | percent of control binding remaining (lower = stronger binding) (broad panel of kinases [31]): 85% | percent of control binding remaining (lower = stronger binding) (broad panel of kinases [32]): 100% | percent of control binding remaining (lower = stronger binding) (broad panel of kinases [33]): 72% | percent of control binding remaining (lower = stronger binding) (broad panel of kinases [34]): 96% | percent of control binding remaining (lower = stronger binding) (broad panel of kinases [35]): 94% | percent of control binding remaining (lower = stronger binding) (broad panel of kinases [36]): 82%

C=CC(=O)N1CC[C@H](Nc2nccc(Nc3ncc(C(=O)Nc4c(C)cccc4C)s3)n2)C1 [Example I-3]
percent of control binding remaining (lower = stronger binding) (broad panel of kinases [1]): 87% | percent of control binding remaining (lower = stronger binding) (broad panel of kinases [2]): 68% | percent of control binding remaining (lower = stronger binding) (broad panel of kinases [3]): 76% | percent of control binding remaining (lower = stronger binding) (broad panel of kinases [4]; RPS6KA4(Kin.Dom.1-N-terminal)): 100% | percent of control binding remaining (lower = stronger binding) (broad panel of kinases [4]; RPS6KA4(Kin.Dom.2-C-terminal)): 100% | percent of control binding remaining (lower = stronger binding) (broad panel of kinases [5]): 98% | percent of control binding remaining (lower = stronger binding) (broad panel of kinases [6]): 100% | percent of control binding remaining (lower = stronger binding) (broad panel of kinases [7]): 97% | % change compared to control (broad panel of kinases [8]): 0.7% | % change compared to control (broad panel of kinases [9]; ABL1(Q252H)-nonphosphorylated): 0.15% | % change compared to control (broad panel of kinases [9]; ABL1(Q252H)-phosphorylated): 0.3% | percent of control binding remaining (lower = stronger binding) (broad panel of kinases [10]): 94% | percent of control binding remaining (lower = stronger binding) (broad panel of kinases [11]): 6.5% | percent of control binding remaining (lower = stronger binding) (broad panel of kinases [12]): 100% | percent of control binding remaining (lower = stronger binding) (broad panel of kinases [13]): 100% | percent of control binding remaining (lower = stronger binding) (broad panel of kinases [14]): 0% | percent of control binding remaining (lower = stronger binding) (broad panel of kinases [15]): 100% | percent of control binding remaining (lower = stronger binding) (broad panel of kinases [16]): 93% | percent of control binding remaining (lower = stronger binding) (broad panel of kinases [17]): 94% | percent of control binding remaining (lower = stronger binding) (broad panel of kinases [18]): 100% | percent of control binding remaining (lower = stronger binding) (broad panel of kinases [19]): 100% | percent of control binding remaining (lower = stronger binding) (broad panel of kinases [20]): 96% | percent of control binding remaining (lower = stronger binding) (broad panel of kinases [21]): 89% | percent of control binding remaining (lower = stronger binding) (broad panel of kinases [22]): 90% | percent of control binding remaining (lower = stronger binding) (broad panel of kinases [23]): 98% | percent of control binding remaining (lower = stronger binding) (broad panel of kinases [24]): 99% | percent of control binding remaining (lower = stronger binding) (broad panel of kinases [25]): 86% | percent of control binding remaining (lower = stronger binding) (broad panel of kinases [26]): 100% | percent of control binding remaining (lower = stronger binding) (broad panel of kinases [27]): 83% | percent of control binding remaining (lower = stronger binding) (broad panel of kinases [28]): 64% | percent of control binding remaining (lower = stronger binding) (broad panel of kinases [29]): 96% | percent of control binding remaining (lower = stronger binding) (broad panel of kinases [30]): 100% | percent of control binding remaining (lower = stronger binding) (broad panel of kinases [31]): 100% | percent of control binding remaining (lower = stronger binding) (broad panel of kinases [32]): 100% | percent of control binding remaining (lower = stronger binding) (broad panel of kinases [33]): 76% | percent of control binding remaining (lower = stronger binding) (broad panel of kinases [34]): 58% | percent of control binding remaining (lower = stronger binding) (broad panel of kinases [35]): 74% | percent of control binding remaining (lower = stronger binding) (broad panel of kinases [36]): 96%
